According to patent US11299500B2, “Crystalline form of lorlatinib free base hydrate” (Pfizer Inc., priority 2017, dated 2022):
Values belong to the compound of their own block, whether it stands above or below them.

How the values were obtained:
[1] = Physical stability in aqueous-based formulations; format: physicochemical; conditions: relative to anhydrous free base (Form 7) and acetic acid solvate (Form 3); e.g., topical formulations
[2] = Water sorption/desorption study by DVS; format: physicochemical
Experimental: A DVS method was employed to study the sorption/desorption behavior of Form 24.
Method: The method involved a standard sorption run from 0% RH to 90% RH, employing humidity rise at steps of 10% RH at 20° C., followed by a de-sorption run down to 0% RH and a second sorption/desorption cycle from 0% RH to 90% RH in 10% step change of RH at 20° C.

[3] = tested on: ALK-positive NSCLC xenograft models and intracranial ALK-positive tumor models; conditions: cited from earlier work
[4] = tested on: c-ros oncogene 1 (ROS1) receptor tyrosine kinase; conditions: wild type and resistance mutant forms, including ROS1 G2032R; cited from earlier work
[5] = tested on: anaplastic lymphoma kinase (ALK); conditions: wild type and resistance mutant forms, including ALK G1202R; cited from earlier work
[6] = targeted relative humidity 0% RH, 20° C.
[7] = targeted relative humidity 10% RH, 20° C.
[8] = targeted relative humidity 20% RH, 20° C.
[9] = targeted relative humidity 30% RH, 20° C.
[10] = targeted relative humidity 40% RH, 20° C.
[11] = targeted relative humidity 50% RH, 20° C.
[12] = targeted relative humidity 60% RH, 20° C.
[13] = targeted relative humidity 70% RH, 20° C.
[14] = targeted relative humidity 80% RH, 20° C.
[15] = targeted relative humidity 90% RH, 20° C.

physical stability in aqueous-based formulations [1]: improved physical stability
hysteresis of de-sorption isotherms with respect to sorption isotherm ([2]; 0-90% RH, 20° C.): very little hysteresis
% Water First Cycle [2, 6]: 0.00%
% Water Second Cycle [2, 6]: 0.00%
% Water First Cycle [2, 7]: 0.06%
% Water Second Cycle [2, 7]: 0.06%
% Water First Cycle [2, 8]: 0.13%
% Water Second Cycle [2, 8]: 0.13%
% Water First Cycle [2, 9]: 0.19%
% Water Second Cycle [2, 9]: 0.20%
% Water First Cycle [2, 10]: 0.27%
% Water Second Cycle [2, 10]: 0.27%
% Water First Cycle [2, 11]: 0.34%
% Water Second Cycle [2, 11]: 0.35%
% Water First Cycle [2, 12]: 0.43%
% Water Second Cycle [2, 12]: 0.44%
% Water First Cycle [2, 13]: 0.52%
% Water Second Cycle [2, 13]: 0.54%
% Water First Cycle [2, 14]: 0.64%
% Water Second Cycle [2, 14]: 0.65%
% Water First Cycle [2, 15]: 0.78%
% Water Second Cycle [2, 15]: 0.78%
change of mass between a dry and wet state ([2]; water level change between dry and wet state): below 1%
SMILES: C[C@H]1Oc2cc(cnc2N)-c2c(nn(C)c2C#N)CN(C)C(=O)c2ccc(F)cc21 [Form 24, (10R)-7-amino-12-fluoro-2,10,16-trimethyl-15-oxo-10,15,16,17-tetrahydro-2H-8,4-(metheno)pyrazolo[4,3-h][2,5,11]benzoxadiazacyclotetra-decine-3-carbonitrile (lorlatinib) Free Base Hydrate (Form 24)]

SMILES: C[C@H]1Oc2cc(cnc2N)-c2c(nn(C)c2C#N)CN(C)C(=O)c2ccc(F)cc21 [Lorlatinib, (10R)-7-amino-12-fluoro-2,10,16-trimethyl-15-oxo-10,15,16,17-tetra-hydro-2H-8,4-(metheno)pyrazolo[4,3-h][2,5,11]benzoxadiazacyclotetradecine-3-carbonitrile]
antitumor activity [3]: demonstrated antitumor activity
potency against ROS1 [4]: nanomolar potency
potency against ALK [5]: nanomolar potency
